Experiments:
Experiment in all cases: Fluorescence competition binding assay (displacement of DC271)
RARα [1] = biological target: T1, RARα (Homo sapiens, UniProt P10276); conditions: for Kd: 100 nM RAR and DC271 on plate, read-out: Binding KD (± SD) RARα; for ΔGEXP RARα: experimental binding free energy from K D, ΔGexp=−RT ln K, 298.1 K
T1 construct: His6-3C-NusA (cleaved yes); made in house; host or cells: E. coli BL21(DE3), pET50b vector
T1 sequence (P10276 183-417 limits assumed): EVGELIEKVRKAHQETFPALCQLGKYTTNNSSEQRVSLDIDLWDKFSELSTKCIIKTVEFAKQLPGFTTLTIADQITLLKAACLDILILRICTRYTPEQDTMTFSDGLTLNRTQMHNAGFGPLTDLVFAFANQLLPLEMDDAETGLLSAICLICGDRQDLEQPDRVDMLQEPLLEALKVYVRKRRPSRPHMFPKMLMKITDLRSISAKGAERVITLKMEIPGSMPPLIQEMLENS
Experimental: (§1) Fluorescence competition assays were employed to determine the relative binding affinities of each synthetic retinoid toward the LBD of the RARs. The assay is based on the potential for competitive displacement of the inherently fluorescent retinoid DC271 from the LBP by a test nonfluorescent synthetic retinoid. Changes in the fluorescence were measured following the addition of a serial dilution of the test compound and the results were plotted to generate a binding curve. […] Assays were performed for both RARα and RARγ. […] Nonlinear least-squares regression analyses were performed to calculate binding affinities and reported as binding K D, the equilibrium dissociation constant between the RAR isoform and the test synthetic retinoid.
(§2) RARα/γ proteins were expressed in BL21(DE3) cells (NEB) transformed into pET50b (Novagen) and pOPINS3C vectors, respectively, carrying the gene construct and containing a His6-3C-NusA tag or His6-3C-SUMO tag used for solubility. Transformations were carried out under standard conditions using Quick Transformation Protocol (New England Biolabs). Successful transformants were grown overnight in 2xYT media (Melford) and frozen for storage at −80 °C in 50% glycerol. Expression cultures were inoculated from glycerol stocks into 25 mL of 2xYT media (Melford) with 50 μg/mL kanamycin or 100 μg/mL ampicillin (Sigma-Aldrich) and grown overnight with shaking (37 °C, 150 rpm). The overnight cultures were transferred into 1 L expression flasks (2xYT/ampicillin 100 μg/mL or 2xYT/kanamycin 50 μg/mL) and grown with shaking at 37 °C, 150 rpm. Induction was carried out at an OD600 of 0.6–0.8, with 1 mL of 1 M IPTG (1 mM in culture), before shaking overnight (20 h) at 18 °C. The resulting cultures were spun down into pellets using an Avanti Hi-Speed centrifuge (JLA 8.1000, 4000 rpm, 30 min, 4 °C), before the supernatant was removed and the bacterial pellet were frozen at −80 °C.
(§3) RARα/γ (pET50b or pOPINS3C, BL21(DE3) (NEB)) were resuspended from pellet with 20 mL Wash Buffer (20 mM Tris-HCl, 300 mM NaCl and 20 mM imidazole, pH 8) and the resulting suspension was sonicated on ice (40% power, 2 min, repeated twice with 1 min rest in-between) before centrifuging (Avanti Hi-Speed JA25.50, 20,000 rpm, 1 h, 4 °C). Supernatants were clarified using 0.45 μm syringe filters (Thermo Fisher Scientific). Affinity chromatography and size-exclusion (SEC) chromatography were carried out on AKTA Pure25 (Cytiva). Supernatants were loaded onto the HisTrap HP column (5 mL, Cytiva) and washed using 25 mL of wash Buffer. The column was washed with Wash Buffer until UV trace returned to baseline, before RARα/γ was eluted using a gradient of Elution Buffer (20 mM Tris-HCl, 300 mM NaCl, 500 mM imidazole pH 8). The resulting protein-containing fractions were analyzed by SDS-PAGE (200 V, 30 min) using SurePAGE Bis-Tris 12% precast gels (Genscript). Protein concentrations were estimated using absorbance at 280 nm on a DS-11 spectrophotometer (Denovix) with calculated molecular weights and extinction coefficients (Expasy). RAR proteins were cleaved overnight from 3C-NusA tag or 3C-SUMO-His tag using 1 Unit/100 μg protein of HRV3C protease (Thermo Fisher Scientific) at 4 °C. Solution after digestion was loaded onto a HiLoad 16/600 Superdex 75 prep-grade column (Cytiva) and cleaved RARα/γ was separated from the tag based on molecular weight and eluted from the column using SEC Buffer (20 mM Tris-HCl, 300 mM NaCl and 0.5 mM TCEP, pH 8) into 2 mL fractions. The resulting protein fractions were analyzed by SDS PAGE (200 V, 30 min) using SurePAGE Bis-Tris 12% precast gels (Genscript), before being concentrated to 5 mg/mL using centrifugal concentrators (Sartorius) and frozen at −80 °C in small aliquots for use in binding assays.

RARα [2] = test system: RARα; set-up: species or system human; conditions: log-log plot of K D for RARα and RARγ
Experimental: as §1, §2, §3

RARγ = biological target: T2, RARγ (Homo sapiens, UniProt P13631); conditions: for Kd: 100 nM RAR and DC271 on plate, read-out: Binding KD (± SD) RARγ; for ΔGEXP RARγ: experimental binding free energy from K D, ΔGexp=−RT ln K, 298.1 K
T2 construct: His6-3C-SUMO (cleaved yes); made in house; host or cells: E. coli BL21(DE3), pOPINS3C vector
T2 sequence (P13631 185-419 limits assumed): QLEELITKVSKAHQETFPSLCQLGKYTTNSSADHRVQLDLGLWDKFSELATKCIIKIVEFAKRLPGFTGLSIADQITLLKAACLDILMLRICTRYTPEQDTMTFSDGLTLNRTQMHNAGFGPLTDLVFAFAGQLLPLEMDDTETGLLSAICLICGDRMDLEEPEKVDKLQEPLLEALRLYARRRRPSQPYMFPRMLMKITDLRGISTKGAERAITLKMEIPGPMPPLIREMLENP
Experimental: as §1, §2, §3

Chain of RARα (P10276 182-417): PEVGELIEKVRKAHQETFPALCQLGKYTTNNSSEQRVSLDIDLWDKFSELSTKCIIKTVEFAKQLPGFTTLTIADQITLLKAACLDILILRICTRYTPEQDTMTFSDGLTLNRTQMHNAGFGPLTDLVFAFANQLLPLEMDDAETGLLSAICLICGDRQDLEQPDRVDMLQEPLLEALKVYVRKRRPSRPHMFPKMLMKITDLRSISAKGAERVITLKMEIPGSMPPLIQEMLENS

Cc1cc2c(cc1C#Cc1ccc(C(=O)O)cn1)C(C)(C)CCC2(C)C [Compound 26, 6-[2-(3,5,5,8,8-Pentamethyl-5,6,7,8-tetrahydronaphthalen-2-yl)ethynyl]pyridine-3-carboxylic Acid]
Kd (RARα [1]): 48.3 nM
ΔGEXP RARα (RARα [1]): -10.0 kcal/mol
binding preference RARα versus RARγ (from K D) (RARα [2]): bind RARα preferentially over RARγ
Kd (RARγ): 90.5 nM
ΔGEXP RARγ (RARγ): -9.61 kcal/mol

COc1cc2c(cc1C#Cc1ccc(C(=O)O)cn1)C(C)(C)CCC2(C)C [Compound 27, 6-[2-(3-Methoxy-5,5,8,8-tetramethyl-5,6,7,8-tetrahydronaphthalen-2-yl)ethynyl]pyridine-3-carboxylic Acid]
Kd (RARα [1]): 1820 nM
ΔGEXP RARα (RARα [1]): -7.84 kcal/mol
binding preference RARα versus RARγ (from K D) (RARα [2]): close to the plotted line representing equal binding affinity for RARα and RARγ
Kd (RARγ): 2150 nM
ΔGEXP RARγ (RARγ): -7.76 kcal/mol

Cc1cc2c(cc1C#Cc1ncc(C(=O)O)cn1)C(C)(C)CCC2(C)C [Compound 28, 2-[2-(3,5,5,8,8-Pentamethyl-5,6,7,8-tetrahydronaphthalen-2-yl)ethynyl]pyrimidine-5-carboxylic Acid]
Kd (RARα [1]): 420 nM
ΔGEXP RARα (RARα [1]): -8.72 kcal/mol
binding preference RARα versus RARγ (from K D) (RARα [2]): bind RARα preferentially over RARγ
Kd (RARγ): 750 nM
ΔGEXP RARγ (RARγ): -8.36 kcal/mol

CC1(C)CCC(C)(C)c2nc(C#Cc3ccc(C(=O)O)cc3)cnc21 [Compound 30, 4-[2-(5,5,8,8-Tetramethyl-5,6,7,8-tetrahydroquinoxalin-2-yl)ethynyl]benzoic Acid]
Kd (RARα [1]): 155 nM
ΔGEXP RARα (RARα [1]): -9.29 kcal/mol
binding preference RARα versus RARγ (from K D) (RARα [2]): close to the plotted line representing equal binding affinity for RARα and RARγ
Kd (RARγ): 217 nM
ΔGEXP RARγ (RARγ): -9.09 kcal/mol

CC1(C)CCC(C)(C)c2nc(C#Cc3ccc(C(=O)O)cc3F)cnc21 [Compound 31, 3-Fluoro-4-[2-(5,5,8,8-tetramethyl-5,6,7,8-tetrahydroquinoxalin-2-yl)ethynyl]benzoic Acid]
Kd (RARα [1]): 203 nM
ΔGEXP RARα (RARα [1]): -9.13 kcal/mol
binding preference RARα versus RARγ (from K D) (RARα [2]): bind RARγ stronger than RARα
Kd (RARγ): 142 nM
ΔGEXP RARγ (RARγ): -9.38 kcal/mol

Cc1sc(-c2ccc(C(=O)O)cc2)nc1-c1cnc2c(n1)C(C)(C)CCC2(C)C [Compound 40, 4-[5-Methyl-4-(5,5,8,8-tetramethyl-5,6,7,8-tetrahydroquinoxalin-2-yl)-1,3-thiazol-2-yl]benzoic Acid]
Kd (RARα [1]): 559 nM
ΔGEXP RARα (RARα [1]): -8.58 kcal/mol
binding preference RARα versus RARγ (from K D) (RARα [2]): close to the plotted line representing equal binding affinity for RARα and RARγ
Kd (RARγ): 655 nM
ΔGEXP RARγ (RARγ): -8.44 kcal/mol

Cc1sc(-c2ccc(C(=O)O)c(F)c2)nc1-c1cnc2c(n1)C(C)(C)CCC2(C)C [Compound 42, 2-Fluoro-4-[5-methyl-4-(5,5,8,8-tetramethyl-5,6,7,8-tetrahydroquinoxalin-2-yl)-1,3-thiazol-2-yl]benzoic Acid]
Kd (RARα [1]): 162 nM
ΔGEXP RARα (RARα [1]): -9.27 kcal/mol
binding preference RARα versus RARγ (from K D) (RARα [2]): close to the plotted line representing equal binding affinity for RARα and RARγ
Kd (RARγ): 133 nM
ΔGEXP RARγ (RARγ): -9.46 kcal/mol

Cc1sc(-c2ccc(C(=O)O)cc2F)nc1-c1cnc2c(n1)C(C)(C)CCC2(C)C [Compound 43, 3-Fluoro-4-[5-methyl-4-(5,5,8,8-tetramethyl-5,6,7,8-tetrahydroquinoxalin-2-yl)-1,3-thiazol-2-yl]benzoic Acid]
Kd (RARα [1]): 2580 nM
ΔGEXP RARα (RARα [1]): -7.64 kcal/mol
binding preference RARα versus RARγ (from K D) (RARα [2]): close to the plotted line representing equal binding affinity for RARα and RARγ
Kd (RARγ): 2710 nM
ΔGEXP RARγ (RARγ): -7.74 kcal/mol
